Consider 11 compounds from patent publication EP1439177B1, “Antiviral activity and resolution of 2-hydroxymethyl-5-(5-fluorocytosin-1-yl)-1,3-oxathiolane” (Emory University, priority 1991, dated 1992).

Usually EC50 stands for the concentration needed to bring the measured effect to its halfway point. As usually defined, the inhibition is the relative decrease from the control value, in per cent.

Data set [1] has as its system uninfected human PBM cells. In words: Growth inhibition of mitogen-stimulated uninfected human PBM cells, trypan blue exclusion. It counts as cell-based. To be noted: uninfected human PBM cells, 6 days; error estimated at ±10%; read-out: Cytotoxicity IC50.
For the next data set, the system named is HIV-1 (strain LAV). In words: microbe, parasite or virus in culture. It counts as cell-based. To be noted: Human immunodeficiency virus 1, PBMC; for inhibition at 0.001 µM / inhibition at 0.005 µM / inhibition at 0.01 µM / inhibition at 0.05 µM / inhibition at 0.1 µM / inhibition at 0.5 µM: read-out: % Inhibition (Corrected). An excerpt:
It is often desirable to screen a number of racemic mixtures of nucleosides as a preliminary step to determine which warrant further resolution into enantiomerically enriched components and further evaluation of antiviral activity. The ability of nucleosides to inhibit HIV can be measured by various experimental techniques. The technique used herein, and described in detail below, measures the inhibition of viral replication in phytohemagglutinin (PHA) stimulated human peripheral blood mononuclear (PBM) cells infected with HIV-1 (strain LAV). The amount of virus produced is determined by measuring the virus-coded reverse transcriptase enzyme. The amount of enzyme produced is proportional to the amount of virus produced.
• A. Three-day-old phytohemagglutinin-stimulated PBM cells (10^6 cells/ml) from hepatitis B and HIV-1 seronegative healthy donors were infected with HIV-1 (strain LAV) at a concentration of about 100 times the 50% tissue culture infectious dose (TICD 50) per ml and cultured in the presence and absence of various concentrations of antiviral compounds. • B. Approximately one hour after infection, the medium, with the compound to be tested (2 times the final concentration in medium) or without compound, was added to the flasks (5 ml; final volume 10 ml). AZT was used as a positive control. • C. The cells were exposed to the virus (about 2 x 10^5 dpm/ml, as determined by reverse transcriptase assay) and then placed in a CO2 incubator. HIV-1 (strain LAV) was obtained from the Center for Disease Control, Atlanta, Georgia. The methods used for culturing the PBM cells, harvesting the virus and determining the reverse transcriptase activity were those described by McDougal et al. (J. Immun. Meth. 76, 171-183, 1985) and Spira et al. (J. Clin. Meth. 25, 97-99, 1987), except that fungizone was not included in the medium (see Schinazi, et al., Antimicrob. Agents Chemother. 32, 1784-1787 (1988); Id., 34:1061-1067 (1990)). • D. On day 6, the cells and supernatant were transferred to a 15 ml tube and centrifuged at about 900 g for 10 minutes. Five ml of supernatant were removed and the virus was concentrated by centrifugation at 40,000 rpm for 30 minutes (Beckman 70.1 Ti rotor). The solubilized virus pellet was processed for determination of the levels of reverse transcriptase. Results are expressed in dpm/ml of sampled supernatant. Virus from smaller volumes of supernatant (1 ml) can also be concentrated by centrifugation prior to solubilization and determination of reverse transcriptase levels.

The subject of the next data set is HIV. In words: microbe, parasite or virus in culture. Type of data set: cell-based. The note with it: Human immunodeficiency virus 1; MT4 system.
The nature of data set [2]: Growth inhibition of mitogen-stimulated uninfected human PBM cells, trypan blue exclusion. Type of data set: cell-based. To be noted: human, pbm cells.
A further data set deals with HIV-2. Kind of data set: microbe, parasite or virus in culture. The note with it: Human immunodeficiency virus 2, PBMC. As to the method:
Cell lines were obtained from either human donors, AIDS Research and Reference Reagent Program, NIH, Rockville, Maryland, ATCC, or the Red Cross. The CEM thymidine kinase deficient cells were prepared by sequential passage of CEM cells in the presence of 5-bromo-2'-deoxyuridine.

A further data set has as its system HBV. To be noted: for INT[…] DNA RI: HBV DNA replication intermediates; for inhibition of the replication of HBV: at the tested levels (Table 7, 10 µM). As to the method:
A summary and description of the assay for antiviral effects in this culture system and the analysis of HBV DNA has been described (Korba and Milman, 1991, Antiviral Res., 15:217). The antiviral evaluations were performed on two separate passages of cells. All wells, in all plates, were seeded at the same density and at the same time.
Due to the inherent variations in the levels of both intracellular and extracellular HBV DNA, only depressions greater than 3.5-fold (for HBV virion DNA) or 3.0-fold (for HBV DNA replication intermediates) from the average levels for these HBV DNA forms in untreated cells are considered to be statistically significant [P<0.05]. The levels of integrated HBV DNA in each cellular DNA preparation (which remain constant on a per cell basis in these experiments) were used to calculate the levels of intracellular HBV DNA forms, thereby ensuring that equal amounts of cellular DNA were compared between separate samples.

The nature of data set [3]: Toxicity analysis in 2.2.15 cells, neutral red dye uptake. It counts as cell-based, human. To be noted: human, 2.2.15 cells. On the procedure:
(§1) Toxicity analyses were performed to assess whether any observed antiviral effects were due to a general effect on cell viability. The method used herein was the measurement of the uptake of neutral red dye, a standard and widely used assay for cell viability in a variety of virus-host systems, including HSV and HIV. Toxicity analyses were performed in 96-well flat bottomed tissue culture plates. Cells for the toxicity analyses were cultured and treated with test compounds with the same schedule as described for the antiviral evaluations below. Each compound was tested at 4 concentrations, each in triplicate cultures (wells "A", "B", and "C"). Uptake of neutral red dye was used to determine the relative level of toxicity. The absorbance of internalized dye at 510 nm (Asin) was used for the quantitative analysis. Values are presented as a percentage of the average Asin values in 9 separate cultures of untreated cells maintained on the same 96-well plate as the test compounds. Dye uptake in the 9 control cultures on plate 5 ranged from 91.6% to 110.4%, and on plate 6 from 96.6% to 109%.

The test system of another data set is 2.2.15 cells. The description is as above. Type of data set: cell-based, human. The note with it: 330 µM. On the procedure:
as §1

The subject of data set [4] is granulocyte-macrophage precursor cells. The note with it: compared with the (+)-enantiomer and AZT; Figure 12.
Setting [5] is: read-out: DYE UPTAKE (% OF CONTROL) WELL A.
Setting [6] is: read-out: DYE UPTAKE (% OF CONTROL) WELL C.
Setting [7] is: read-out: DYE UPTAKE (% OF CONTROL) WELLB.

Several values for one entry are separate records, joined by “and”; a condition that tells them apart may be missing. Equal entries are not always repeated. Where two headings read alike, the source gives them in different places.

Regarding `Cc1cn(C2CSC(CO)O2)c(=O)[nH]c1=O` (stereo not shown) [DLS-010], the CC50 in data set [1] was above 100000 nM.

As for `CC(=O)Nc1nc(=O)n([C@@H]2CS[C@H](CO)O2)cc1F` (racemic) [N^4-acetyl derivative of (±)-FTC], the EC50 in the data set on HIV-1 (strain LAV) came out at 0.0028 µM.

For the compound `Nc1nc(=O)n([C@H]2CS[C@@H](CO)O2)cc1Cl` [DLS-023], the CC50 in [1] was above 100000 nM.

As for `Nc1nc(=O)n([C@H]2CS[C@@H](CO)O2)cc1I` [DLS-026], the CC50 in [1] was above 100000 nM.

For `CCCC(=O)OC[C@@H]1O[C@H](n2cc(F)c(N)nc2=O)CS1` (racemic) [5'-O-butyrate ester of (±)-FTC], the figures for the EC50 in the data set on HIV-1 (strain LAV) and in the data set on HIV were 0.0017 µM and 40 nM, respectively.

As for `Nc1nc(=O)n([C@@H]2CS[C@H](CO)O2)cc1F` (single isomer, unassigned) [(-)-FTC, (-)-β-L-2-hydroxymthyl-5-(5-fluorocytosin-1-yl)-1,3-oxathiolane], in the data set on HIV-1 (strain LAV), the inhibition at 0.001 µM was 23.8%, the inhibition at 0.005 µM was 43.3%, the inhibition at 0.01 µM stood at 24.8% and the inhibition at 0.05 µM came to 76.2%. Moreover, in the data set on HIV-1 (strain LAV), the inhibition at 0.1 µM turned out to be 93.5% and the inhibition at 0.5 µM was found to be 97.6%. The EC50 with HIV-1 (strain LAV) (read-out: Antiviral EC50) was found to be 0.008 µM. For the same compound, the EC50 in the data set with HIV-1 (strain LAV) (read-out: EC50) is 0.0077 µM. Besides, the EC50 in the data set with HIV-1 (strain LAV) (read-out: EC50:µM) is 0.02 µM. In data set [2], this compound showed a CC50 at 144 h above 100000 nM. The EC50 in the data set with HIV-2 turned out to be 0.7 nM. Besides, in the data set on HBV (0.25 µM, replicate wells), the “HBV VIRION DNA DAY 0” value was 89 pg/ml CULTURE MEDIUM and the “HBV VIRION DNA DAY 4” value was 15 pg/ml CULTURE MEDIUM. For the same compound, the “INT[…] DNA RI” value with HBV (1 µM, 24 hours following the 9th day of treatment) is 2 pg/µg CELL DNA and 3 pg/µg CELL DNA and 4 pg/µg CELL DNA. In the data set on HBV (1 µM, replicate wells), the “HBV VIRION DNA DAY 0” value worked out at 89 pg/ml CULTURE MEDIUM; the “HBV VIRION DNA DAY 4” value was 15 pg/ml CULTURE MEDIUM and 22 pg/ml CULTURE MEDIUM. Besides, the “INT[…] DNA MONO.” value in the data set on HBV (1 µM, episomal 3.2 kb HBV genomes, 24 hours following the 9th day of treatment) is 1.7 pg/µg CELL DNA and 1.4 pg/µg CELL DNA. Moreover, the “INT[…] DNA RI” value with HBV (4 µM, 24 hours following the 9th day of treatment) was 1 pg/µg CELL DNA and 2 pg/µg CELL DNA. Further, the “inhibition of the replication of HBV” value in the data set on HBV is reported as “significantly inhibited”. In data set [3] (setting [5]), the viability at 10 µM turned out to be 94.3%, the viability at 30 µM was found to be 98.7%, the viability at 100 µM amounted to 64.1% and the viability at 300 µM is 53%. Further, in [3] (setting [6]), the viability at 10 µM was 92.2%, the viability at 30 µM turned out to be 96.4%, the viability at 100 µM was determined as 77.6% and the viability at 300 µM stood at 51.5%. In addition, in data set [3] (setting [7]), the viability at 10 µM amounted to 94.9%, the viability at 30 µM was 94.3%, the viability at 100 µM amounted to 66.6% and the viability at 300 µM turned out to be 51.1%. Also, in the data set on 2.2.15 cells, the “toxicity at the highest concentration used for the toxicity tests” value is “appeared to be toxic”. The “toxicity (IC50) on colony formation” value in [4] was “less toxic”.

As for `Nc1nc(=O)n([C@H]2CS[C@@H](CO)O2)cc1Br` [DLS-021], the CC50 in data set [1] was above 100000 nM.

In the case of `O=c1[nH]c(=O)n([C@H]2CS[C@@H](CO)O2)cc1Cl` [DLS-028], in data set [1], the CC50 was above 100000 nM.

For `Nc1nc(=O)n([C@H]2CS[C@@H](CO)O2)cc1F` [(+)-FTC, (+)-β-D-2-hydroxymethyl-5-(5-fluorocytosin-1-yl)-1,3-oxathiolane], in the data set on HIV-1 (strain LAV), the inhibition at 0.001 µM is 3.8%, the inhibition at 0.005 µM is -10.6%, the inhibition at 0.01 µM was -1.8% and the inhibition at 0.05 µM amounted to 11.8%. For the same compound, in the data set with HIV-1 (strain LAV), the inhibition at 0.1 µM amounted to 12.7% and the inhibition at 0.5 µM worked out at 71.4%. In the data set with HIV-1 (strain LAV) (read-out: Antiviral EC50), the EC50 was 0.84 µM. Also, in the data set with HIV-1 (strain LAV) (read-out: EC50), the EC50 worked out at 0.84 µM. Besides, in the data set with HIV-1 (strain LAV) (read-out: EC50:µM), the EC50 stood at 0.28 µM. Moreover, the CC50 at 144 h in [2] is above 100000 nM. In the data set on HIV-2, this compound displayed an EC50 of 26 nM. The “HBV VIRION DNA DAY 0” value in the data set on HBV (10 µM, replicate wells) is 58 pg/ml Culture Medium. Besides, the “HBV Virion DNA DAY 9” value in the data set on HBV (10 µM, day 9, sensitivity cutoff 0.1 pg/ml, replicate wells) was found to be 0.1 pg/ml Culture Medium. Also, the “inhibition of the replication of HBV” value with HBV is given as “significantly inhibited”. Further, in data set [3] (setting [5]), the viability at 10 µM amounted to 90.9%, the viability at 30 µM was determined as 81.1%, the viability at 100 µM was 77.7% and the viability at 300 µM amounted to 43.4%. Also, in [3] (setting [6]), the viability at 10 µM was 90.5%, the viability at 30 µM stood at 88.1%, the viability at 100 µM was 72.1% and the viability at 300 µM was 58.5%. Besides, in data set [3] (setting [7]), the viability at 10 µM stood at 99.4%, the viability at 30 µM came to 88.3%, the viability at 100 µM stood at 66.3% and the viability at 300 µM is 56.7%. In addition, the “toxicity at the highest concentration used for the toxicity tests” value with 2.2.15 cells is recorded as “appeared to be toxic”.

Turning to `Cc1cn([C@H]2CS[C@@H](CO)O2)c(=O)nc1N` [DLS-011], the CC50 in data set [1] is above 100000 nM.

In the case of `Nc1nc(=O)n([C@@H]2CS[C@H](CO)O2)cc1C(F)(F)F` [DLS-053], in data set [1], the CC50 is above 100000 nM.
